Laboratory results as given in patent publication US8735375B2, “Therapeutic compositions” (Leo Laboratories Limited, priority 2005, dated 2014).

Assays:
Type in all cases: physicochemical
[1] = Stability study of I3A in solvents at 4-8° C.; conditions: 14 days
Protocol: The stability of I3A in various solvents at 4-8° C. was investigated. A stock solution of 1.26 mg of I3A was weighed out and dissolved in 2 ml acetone. This stock solution was used to prepare the stability samples as follows:
Aliquots of 100 μl of stock solution were transferred to individual glass HPLC vials via a Hamilton syringe, with careful rinsing and drying of the syringe between each sample. The samples were dried down by air jet and then 0.5 ml of the appropriate test solvent system added. The solvent systems were tested in triplicate and are listed below:
Blank samples were also prepared in triplicate using 100 μl of acetone in place of the stock solution. The blank samples were then dried down and 0.5 ml acetone added to each vial. The vials were all crimped, sealed with Parafilm® and placed at 4-8° C. for the duration of the stability study. HPLC analysis was performed on the samples on Day 0, Day 1, Day 5 and Day 14 of the stability study. The samples were prepared for the HPLC assay as described below:
The stability samples were removed from 4-8° C. and left at ambient temperature for 30 mins. Aliquots of 100 μl were transferred to fresh glass HPLC vials using a Hamilton syringe, with careful, rinsing and drying of the syringe between each sample. To facilitate drying of the samples, 0.5 ml of acetone was added to each vial and then the samples were dried down by air jet. The samples were reconstituted with 1 ml of acetonitrile and analysed by HPLC using the chromatographic conditions specified above.

[2] = Preliminary stability of I3A in fractionated coconut oil
Protocol: Approximately 10 mg of […] was accurately weighed into a 28 ml glass vial and added to approximately 200 mg of benzyl alcohol (exact weight noted), which had previously been filtered through a 0.22 μm MILLEX-GV filter. This mixture was periodically vortexed for approximately 2 h until the […] had dissolved in the benzyl alcohol. […] Aliquots of each formulation (placebo or active) were dispensed into 2 ml screw cap amber glass vials (borosilicate glass), sealed and stored at two storage conditions namely 2-8° C. and 25±2° C. […]

[3] = Stability study of I3A in solvents/excipients at room temperature (HPLC ratio of isoform 'b' to 'a' and 'c')
Protocol: A stability study of I3A in the following solvent/excipients/excipient combinations was performed over 14 days (except where otherwise stated) at room temperature:
A 0.5 mg/ml stock solution of I3A in acetonitrile was prepared. Aliquots of 1.0 ml were transferred to individual glass sample vials by a burette; the solutions were dried by air jet and then 1.0 g of the respective solvent/excipient/excipient combination was added to the vials. On Day 0, Day 5 and Day 14, aliquots of the stability samples were removed for HPLC analysis using the chromatographic conditions described under “Stability in DMSO”, below. Stability was expressed as the ratio of peak ‘b’ to peak ‘a’ (and peak ‘c’ if present), with a high ratio indicating stability in a particular excipient.
The chromatographic conditions employed for the excipients stability study were as follows:
It is assumed that for an excipient in which I3A is not stable, other like excipients will not be suitable.

[4] = Stability of I3A isoforms in the assay solvent systems over 72 h
Protocol: The stability of […] isoforms 'a', 'b' and 'c' in the three sample systems over 72 h (equivalent to the maximum possible length of time the samples might be held in the autosampler during a long HPLC analytical run) was confirmed as follows. Standards of the three isoforms of […] The standards were then each divided into three equal volumes and placed at 2-8° C., room temperature and 40° C. for 72 h and were then again analysed by HPLC.

[5] = I3A in Mineral oil, room temperature, 14 days
[6] = Acetonitrile/Citrate buffer (pH 3), 72 h 2-8° C.
[7] = Acetonitrile/Citrate buffer (pH 3), 72 h 40° C.
[8] = Acetonitrile/Citrate buffer (pH 3), 72 h RTP
[9] = Acetonitrile/Citrate buffer (pH 3), Time 0 h
[10] = Acetonitrile/Sodium acetate buffer (pH 4.5), 72 h 2-8° C.
[11] = Acetonitrile/Sodium acetate buffer (pH 4.5), 72 h 40° C.
[12] = Acetonitrile/Sodium acetate buffer (pH 4.5), 72 h RTP
[13] = Acetonitrile/Sodium acetate buffer (pH 4.5), Time 0 h

C/C=C(/C)C(=O)O[C@H]1C(C)=C[C@]23C(=O)[C@H](C=C(CO)[C@@H](O)[C@]12O)[C@H]1[C@@H](C[C@H]3C)C1(C)C [Formulation I3A, ingenol-3-angelate]
stability (predominance of peak 'b') ([1]; 100% v/v acetone): stable | stability (predominance of peak 'b') ([1]; 100% v/v acetonitrile): stable | isomer formation ([1]; protic solvents (methanol, methanol/water, water)): formation of isomer ‘a’ and then isomer ‘c’ increases rapidly | % I3A ‘a’ (isoform ‘a’ as a percentage of isoform ‘a’ and I3A ‘b’) ([2]; 0.1% w/w I3A in fractionated coconut oil/2% benzyl alcohol, Time 0): 1.90% | % I3A ‘a’ ([2]; Fresh sample I3A in Acetonitrile at time 43 days): 2.14% | % I3A ‘a’ (isoform ‘a’ as a percentage of isoform ‘a’ and I3A ‘b’) ([2]; Fresh sample I3A in Acetonitrile at time zero): 2.50% | % I3A ‘a’ ([2]; I3A in fractionated coconut oil formulation, Time 5 days (2-8° C.)): 1.86% | % I3A ‘a’ ([2]; I3A in fractionated coconut oil formulation, Time 5 days (25° C.)): 1.97% | % I3A ‘a’ ([2]; I3A in fractionated coconut oil formulation, Time 20 days (2-8° C.)): 1.94% | % I3A ‘a’ ([2]; I3A in fractionated coconut oil formulation, Time 20 days (25° C.)): 1.93% | % I3A ‘a’ ([2]; I3A in fractionated coconut oil formulation, Time 28 days (2-8° C.)): 1.93% | % I3A ‘a’ ([2]; I3A in fractionated coconut oil formulation, Time 28 days (25° C.)): 1.94% | % I3A ‘a’ ([2]; I3A in fractionated coconut oil formulation, Time 43 days (2-8° C.)): 1.95% | % I3A ‘a’ ([2]; I3A in fractionated coconut oil formulation, Time 43 days (25° C.)): 1.91% | change in percentage of isoform ‘a’ during storage ([2]; I3A in fractionated coconut oil, 2-8 and 25° C., 43 days): no increase in the percentage of isoform ‘a’ | Stable? ([3]; I3A in 2-Hydroxypropyl-β-cyclodextrin (Cavasol)/PO4 pH 4.5, room temperature, 14 days): √ | Stable? ([3]; I3A in Acetone, room temperature, 14 days): stable and √ | Stable? ([3]; I3A in Acetonitrile, room temperature, 14 days): stable and √ | Stable? ([3]; I3A in Ammonium buffer pH 4.5, room temperature): stable and √ | Comments ([3]; I3A in Captisol/H2O, room temperature, 7 days study (comment continues: present)): Isoforms ‘a’ and ‘c’ | Comments ([3]; I3A in Cavasol/H2O, room temperature, 14 days): Large peak for isoform ‘c’ | Comments ([3]; I3A in Cavasol/PO4 pH 4.5, room temperature, 14 days): Some precipitation of I3A | Stable? ([3]; I3A in DMSO, room temperature, 10 days study): stable and √ | Comments ([3]; I3A in Methanol, room temperature, 14 days): Isoform ‘a’ forms | Comments ([3]; I3A in Methanol/water (70/30), room temperature, 14 days): Isoform ‘a’ then ‘c’ form | Stable? ([3]; I3A in Miglyol 810, room temperature, 14 days): √ | Comments [3, 5]: Precipitation of I3A | Stable? [3, 5]: √ | Comments ([3]; I3A in Oleic acid, room temperature, 14 days (isoform 'a' present, shoulder on 'b', 'c' forming)): chromatogram. isoform ‘a’ | Stable? ([3]; I3A in Phosphate buffer pH 4.5, room temperature, 14 days): stable and √ | Comments ([3]; I3A in Phosphate buffer pH 5.5, room temperature, 14 days): Isoform ‘a’ forms | Comments ([3]; I3A in Phosphate buffer pH 6.5, room temperature, 14 days): Isoform ‘a’ then ‘c’ form | Stable? ([3]; I3A in Polyethylene glycol, room temperature, 14 days): √ | Comments ([3]; I3A in Propylene glycol, room temperature, 14 days (comment continues: isoforms)): Formation of ‘a’ and ‘c’ | Comments ([3]; I3A in Sodium hyaluronate/H2O, room temperature, 2 days study): Isoform ‘a’ present | Stable? ([3]; I3A in Sodium hyaluronate/PO4 pH 4.5, room temperature, 2 days study): √ | Stable? ([3]; I3A in Tween 80/Span 80/H2O, room temperature, 14 days): √ | Stable? ([3]; I3A in Tween 80/Span 80/PO4 pH 4.5, room temperature, 14 days): √ | Comments ([3]; I3A in Water, room temperature, 14 days): Isoform ‘a’ then ‘c’ form | Stable? ([3]; I3A in β-cyclodextrin sulphobutyl ether (Captisol)/PO4 pH 4.5, room temperature, 7 days study): √ | % ‘a’ ([4]; Acetonitrile, 72 h 2-8° C.): 3.94% | % ‘b’ ([4]; Acetonitrile, 72 h 2-8° C.): 95.45% | % ‘c’ ([4]; Acetonitrile, 72 h 2-8° C.): 0% | % ‘a’ ([4]; Acetonitrile, 72 h 40° C.): 15.52% | % ‘b’ ([4]; Acetonitrile, 72 h 40° C.): 83.35% | % ‘c’ ([4]; Acetonitrile, 72 h 40° C.): 0% | % ‘a’ ([4]; Acetonitrile, 72 h RTP): 5.83% | % ‘b’ ([4]; Acetonitrile, 72 h RTP): 93.51% | % ‘c’ ([4]; Acetonitrile, 72 h RTP): 0% | % ‘a’ ([4]; Acetonitrile, Time 0 h): 0.39% | % ‘b’ ([4]; Acetonitrile, Time 0 h): 99.27% | % ‘c’ ([4]; Acetonitrile, Time 0 h): 0% | % ‘a’ [4, 6]: 0.18% | % ‘b’ [4, 6]: 99.49% | % ‘c’ [4, 6]: 0% | % ‘a’ [4, 7]: 0.34% | % ‘b’ [4, 7]: 99.63% | % ‘c’ [4, 7]: 0% | % ‘a’ [4, 8]: 0.13% | % ‘b’ [4, 8]: 99.76% | % ‘c’ [4, 8]: 0% | % ‘a’ [4, 9]: 0.13% | % ‘b’ [4, 9]: 99.64% | % ‘c’ [4, 9]: 0% | % ‘a’ [4, 10]: 0.63% | % ‘b’ [4, 10]: 99.02% | % ‘c’ [4, 10]: 0% | % ‘a’ [4, 11]: 6.35% | % ‘b’ [4, 11]: 93.13% | % ‘c’ [4, 11]: 0% | % ‘a’ [4, 12]: 1.16% | % ‘b’ [4, 12]: 98.41% | % ‘c’ [4, 12]: 0% | % ‘a’ [4, 13]: 0.34% | % ‘b’ [4, 13]: 98.88% | % ‘c’ [4, 13]: 0.01%
